Here are results for seven molecules from patent publication US20090029992A1, “SUBSTITUTED PYRAZOLE COMPOUNDS” (priority 2007, published 2009).

The target of experiment [1] is T1, N-terminal His-tagged human Src (Homo sapiens, UniProt P12931).
T1 construct: His (N); purchased Upstate USA Inc, 706 Forest Street, Charlottesville, Va
The experiment in a line: Src kinase inhibition assay (33P-ATP filter assay). It counts as biochemical. As to the method: Compounds were assayed for Src kinase inhibitory activity using N-terminal His-tagged human Src (Upstate USA Inc, 706 Forest Street, Charlottesville, Va.). Serial dilutions of compound were assayed in a final reaction volume of 25 μL by incubating a solution of the above Src kinase (5-10 mU), 8 mM MOPS (3-(N-morpholino) propanesulfonic acid) pH 7.0, 0.2 mM EDTA (ethylenediamine tetracetic acid), 250 μM amino acid sequence KVEKIGEGTYGVVYK (Upstate USA Inc, 706 Forest Street, Charlottesville, Va.), and 10 mM magnesium acetate and [γ-^33P-ATP] (specific activity of about 500 cpm/μmol, concentration as required). The reaction was initiated by the addition of the magnesium acetate and [γ-^33P-ATP] mixture. After incubation for 40 minutes at room temperature, the reaction was stopped by the addition of 5 μL of a 3% phosphoric acid solution. A 10 μL aliquote of the reaction was then spotted onto a P30 filtermat (PerkinElmer, Wellesley, Mass.) and washed three times for five minutes in 75 mM phosphoric acid and once in methanol prior to drying and scintillation counting. Inhibition of Src activity was determined by comparison to assays that contained no inhibitor.

Experiment [2] deals with T2, N-terminal GST-tagged recombinant human Flt3, residues 564-end (Homo sapiens, UniProt P36888).
T2 construct: recombinant human Flt3, residues 564-end; GST (N); purchased Upstate USA Inc, 706 Forest Street, Charlottesville, Va
T2 sequence (P36888 564-993 limits assumed): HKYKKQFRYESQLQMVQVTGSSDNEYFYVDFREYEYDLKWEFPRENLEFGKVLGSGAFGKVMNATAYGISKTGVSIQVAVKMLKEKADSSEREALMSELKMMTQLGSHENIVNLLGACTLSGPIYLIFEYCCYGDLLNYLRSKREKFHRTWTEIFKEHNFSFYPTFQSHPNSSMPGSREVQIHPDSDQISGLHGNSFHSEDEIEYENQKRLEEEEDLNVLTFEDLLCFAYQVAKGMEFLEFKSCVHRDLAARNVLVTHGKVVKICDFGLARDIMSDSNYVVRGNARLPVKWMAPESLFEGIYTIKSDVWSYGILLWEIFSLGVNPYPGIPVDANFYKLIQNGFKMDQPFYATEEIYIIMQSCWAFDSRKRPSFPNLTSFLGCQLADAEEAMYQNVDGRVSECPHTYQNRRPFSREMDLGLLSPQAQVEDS
The experiment in a line: Flt3 kinase inhibition assay (33P-ATP filter assay). It counts as biochemical. The conditions noted are these: 40 minutes at room temperature. The method, then: (§1) Compounds were assayed for Flt3 kinase inhibitory activity using N-terminal GST-tagged recombinant human Flt3, residues 564-end (Upstate USA Inc, 706 Forest Street, Charlottesville, Va.). Serial dilutions of compound were assayed in a final reaction volume of 25 μL by incubating a solution of the above Flt3 kinase (5-10 mU), 8 mM MOPS (3-(N-morpholino) propanesulfonic acid) pH 7.0, 0.2 mM EDTA (ethylenediamine tetracetic acid), 50 μM amino acid sequence EAIYAAPFAKKK (Upstate USA Inc, 706 Forest Street, Charlottesville, Va.), and 10 mM magnesium acetate and [γ-^33P-ATP] (specific activity of about 500 cpm/μmol, concentration as required). The reaction was initiated by the addition of the magnesium acetate and [γ-^33P-ATP] mixture. After incubation for 40 minutes at room temperature, the reaction was stopped by the addition of 5 μL of a 3% phosphoric acid solution. A 10 μL aliquote of the reaction was then spotted onto a P30 filtermat (PerkinElmer, Wellesley, Mass.) and washed three times for five minutes in 75 mM phosphoric acid and once in methanol prior to drying and scintillation counting. Inhibition of Flt3 activity was determined by comparison to assays that contained no inhibitor.

For experiment [3], the target named is T3, N-terminal His6-tagged recombinant human KDR, residues 790-end (Homo sapiens, UniProt P35968).
T3 construct: recombinant human KDR, residues 790-end; His6 (N); purchased Upstate USA Inc, 706 Forest Street, Charlottesville, Va
T3 sequence (P35968 790-1356 limits assumed): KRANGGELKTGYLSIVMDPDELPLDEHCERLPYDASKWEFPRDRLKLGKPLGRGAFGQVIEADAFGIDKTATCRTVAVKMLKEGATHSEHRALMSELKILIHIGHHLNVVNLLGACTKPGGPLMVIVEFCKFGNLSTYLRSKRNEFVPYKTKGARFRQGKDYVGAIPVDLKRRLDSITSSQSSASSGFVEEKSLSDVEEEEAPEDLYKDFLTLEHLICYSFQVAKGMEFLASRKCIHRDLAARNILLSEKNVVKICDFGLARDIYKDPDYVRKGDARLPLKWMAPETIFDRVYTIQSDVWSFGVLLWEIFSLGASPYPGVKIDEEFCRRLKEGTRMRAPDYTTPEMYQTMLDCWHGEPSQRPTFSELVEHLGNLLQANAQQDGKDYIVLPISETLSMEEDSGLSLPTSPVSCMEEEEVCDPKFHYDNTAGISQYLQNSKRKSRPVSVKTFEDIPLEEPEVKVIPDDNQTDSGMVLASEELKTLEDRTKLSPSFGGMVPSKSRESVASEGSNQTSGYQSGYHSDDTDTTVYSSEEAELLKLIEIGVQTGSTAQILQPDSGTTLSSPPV
Briefly: KDR kinase inhibition assay (33P-ATP filter assay). It counts as biochemical. As to the method: as §1, with “KDR” for “Flt3”, “His6-tagged” for “GST-tagged”, “KDR,” for “Flt3,”, “790-end” for “564-end”, “0.33 mg/mL myelin basic protein” for “50 μM amino acid sequence EAIYAAPFAKKK”

Experiment [4] has as its target T4, recombinant Aurora A (Homo sapiens, UniProt O14965).
T4 construct: purchased Upstate, Lake Placid, N.Y
T4 sequence (O14965 1-403): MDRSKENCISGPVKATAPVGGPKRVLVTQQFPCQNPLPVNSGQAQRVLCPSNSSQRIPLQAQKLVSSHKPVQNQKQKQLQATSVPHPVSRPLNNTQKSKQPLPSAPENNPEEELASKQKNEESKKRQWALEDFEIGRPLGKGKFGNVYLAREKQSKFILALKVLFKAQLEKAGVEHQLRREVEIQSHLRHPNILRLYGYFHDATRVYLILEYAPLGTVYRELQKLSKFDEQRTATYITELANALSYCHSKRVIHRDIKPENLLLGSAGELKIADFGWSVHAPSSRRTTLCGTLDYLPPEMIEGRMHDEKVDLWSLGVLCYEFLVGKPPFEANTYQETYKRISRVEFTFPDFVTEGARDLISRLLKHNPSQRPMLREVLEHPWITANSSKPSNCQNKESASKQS
The experiment in a line: Aurora A (Aurora 2) inhibition assay, Z'-Lyte kinase assay. It counts as biochemical. The conditions noted are these: ATP 10 μM, 1 h. The method, then: Compounds were tested for their potency against recombinant Aurora A (Upstate, Lake Placid, N.Y.) using the PanVera Z′-Lyte kinase assay kit—Ser/Thr 1 peptide (Invitrogen, Carlsbad, Calif.). Assays were carried out in kinase assay buffer (50 mM HEPES, pH 7.5, 10 mM MgCl2, 5 mM EGTA, 0.05% Brij-35, 2 mM DTT). Test compounds were initially dissolved in DMSO at 100× the highest tested concentration, then serially diluted to 4× test concentrations in kinase assay buffer. Next, Aurora A (final concentration 200-500 ng/mL), Z′-Lyte Ser/Thr 1 peptide (final concentration 2 μM) and ATP (final concentration 10 μM) were added according to the manufacturer's instructions. Assays were carried out in half-area 96-well white polystyrene assay plates (Corning, Corning, N.Y.) in a final volume of 20 μl. The reaction was allowed to proceed for 1 h at room temperature in the dark, at which point the development reagent and stop reagent were added according to the manufacturer's instructions. Coumarin (Ex. 400 nm, Em. 465 nm) and fluorescein (Ex. 400 nm, Em. 565 nm) fluorescence values were measured on a SpectraFluor Plus plate reader (Tecan, Durham, N.C.). The emission ratio (coumarin/fluorescein) was determined and used to calculate the percent phosphorylation for each well. Wells containing substrate but no kinase and wells containing a phosphopeptide control were used to set 0% and 100% phosphorylation values, respectively. Typically 20-40% of the substrate was phosphorylated in wells without inhibitor. Dose-response curves of relative Aurora A activity vs. inhibitor concentration were plotted with Grafit (Erithacus Software, Horley, Surrey, UK).

Experiment [5] has as its system HCT116 cells. The experiment in a line: Whole cell cytotoxicity assay, Sulforhodamine B. It counts as cell-based. The conditions noted are these: Homo sapiens, HCT-116; HCT116, 96 hours incubation, SRB; read-out: IC50 values in this assay (HCT116 cell growth). As to the method:
Human tumor-derived cell lines, HCT116 or MCF7 (ATCC) were plated in a 96 well plate in DMEM containing 10% fetal bovine serum and 2 mM L-glutamine at a density of 500 HCT116 cells or 1,000 MCF7 cells per well and incubated at 37° C., 5% CO2, for 24 hours prior to the addition of experimental compounds. Compounds were added using the dilution series indicated to duplicate plates and the cells were incubated in media plus compound for 96 hours. An additional plate was fixed in 10% TCA at the time of the addition of compound to provide a measurement of the cell population at time zero, the time of drug addition. Following the 96 hour incubation, cells were fixed in situ by gently aspirating off the culture media and then adding 50 ul of ice cold 10% TCA per well and incubation at 4° C. for 60 minutes. The plates were washed with tap water five times and allowed to air dry for 5 minute. 50 ul of a 0.4% (w/v) Sulforhodamine B solution in 1% (v/v) acetic acid was added per well and the cells were incubated for 30 minutes at room temperature. Following staining, plates were washed four times with 1% acetic acid to remove any unbound dye and then allowed to air dry for 5 minutes. The stain was solubilized with 100 ul of 10 mM Tris pH 10.5 per well and placed on an orbital rotator for 5 minutes. The absorbance was read at 570 nm. Percentage growth was calculated using the absorbance readings from the time zero plate (Tz) and the dilution series plate […] which included a column of cells grown in media without compound as a control (C) using the formulas:
[(Ti−Tz)/(C−Tz)]×100 for concentrations for which Ti>/=Tz
[(Ti−Tz)/Tz]×100 for concentrations for which Ti<Tz.
Three dose response parameters were calculated for each experimental agent. Growth inhibition of 50% (GI50) was calculated from [(Ti−Tz)/(C−Tz)]×100=50, which was the drug concentration resulting in a 50% reduction in the net protein increase (as measured by SRB staining) in control cells during the drug incubation. The drug concentration resulting in total growth inhibition (TGI) was calculated from Ti=Tz. The LC50 (concentration of drug resulting in a 50% reduction in the measured protein at the end of the drug treatment as compared to that at the beginning) indicating a net loss of cells following treatment ws calculated from [(Ti−Tz)/Tz]×100=−50. Values are calculated for each of these three parameters if the level of activity was reached; however, if the effect was not reached or was exceeded, the value for that parameter is expressed as greater or less than the maximum or minimum concentration tested.

Where [6] appears, read: group with IC50 greater than 100 nM.

Bounds are passed on as bounds.

T1 sequence (P12931 whole entry): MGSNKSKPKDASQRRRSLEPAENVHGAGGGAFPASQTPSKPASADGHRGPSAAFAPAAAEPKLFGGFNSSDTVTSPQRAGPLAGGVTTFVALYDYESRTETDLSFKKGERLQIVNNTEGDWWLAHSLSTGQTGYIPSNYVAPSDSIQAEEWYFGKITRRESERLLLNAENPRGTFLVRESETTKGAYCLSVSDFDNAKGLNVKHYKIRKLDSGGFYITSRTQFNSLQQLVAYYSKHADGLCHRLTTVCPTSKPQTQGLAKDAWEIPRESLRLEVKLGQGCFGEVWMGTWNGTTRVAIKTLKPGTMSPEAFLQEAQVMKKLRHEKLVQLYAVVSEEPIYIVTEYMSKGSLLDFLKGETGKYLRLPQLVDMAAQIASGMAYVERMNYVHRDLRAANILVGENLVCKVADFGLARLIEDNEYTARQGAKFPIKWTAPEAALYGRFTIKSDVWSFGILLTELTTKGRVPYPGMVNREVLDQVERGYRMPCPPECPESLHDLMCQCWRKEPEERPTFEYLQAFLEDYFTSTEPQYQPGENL

By IC50 is commonly meant the concentration that inhibits the measured activity by half. As to `COCCN(C)c1cc(Nc2cc(C)[nH]n2)nc(-c2cccc(C)c2C)n1` [Example 181, 2-(2,3-dimethylphenyl)-N^4-(2-methoxyethyl)-N^4-methyl-N^6-(5-methyl-1H-pyrazol-3-yl)pyrimidine-4,6-diamine], the half-inhibitory concentration (IC50) in experiment [1] (setting [6]) was at most 1 µM; in experiment [2], at most 0.1 µM; in experiment [3] (setting [6]) it was at most 1 µM; in experiment [4] (setting [6]), at most 1 µM.

As to `Cc1cc(Nc2cc(NC3CCOCC3)nc(-c3cccc4c3OCCO4)n2)n[nH]1` [Compound 129], the IC50 in experiment [1] (setting [6]) is at most 1 µM; in experiment [2], at most 0.1 µM; in experiment [3] (setting [6]), at most 1 µM; in experiment [4] (setting [6]), at most 1 µM.

Consider `CC(=O)Nc1cccc(-c2nc(Nc3cc(C)[nH]n3)cc(N3CCN(C)CC3)n2)c1` [Example 167, N-(3-(4-(5-methyl-1H-pyrazol-3-ylamino)-6-(4-methylpiperazin-1-yl)pyrimidin-2-yl)phenyl)acetamide], for which the half-maximal inhibitory concentration (IC50) in experiment [1] (40 minutes at room temperature), in experiment [2], in experiment [3] (40 minutes at room temperature) and in experiment [4] was at most 0.1 µM in each case.

With `Cc1cc(Nc2cc(N3CCN(C)CC3)nc(-c3cccc(O)c3)n2)n[nH]1` [Example 161, 3-(4-(5-methyl-1H-pyrazol-3-ylamino)-6-(4-methylpiperazin-1-yl)pyrimidin-2-yl)phenol], the IC50 in experiment [1] (40 minutes at room temperature), in experiment [2], in experiment [3] (40 minutes at room temperature) and in experiment [4] was at most 0.1 µM each time.

On to `Cc1ccc(C)c(-c2nc(Nc3cc(C)[nH]n3)cc(NC3CCOCC3)n2)c1` [Example 206, 2-(2,5-dimethylphenyl)-N^4-(5-methyl-1H-pyrazol-3-yl)-N^6-(tetrahydro-2H-pyran-4-yl)pyrimidine-4,6-diamine], for which the IC50 in experiment [1] (setting [6]) is at most 1 µM; in experiment [2], at most 0.1 µM; in experiment [3] (setting [6]), at most 1 µM; in experiment [4] (setting [6]), at most 1 µM.

For `CCc1ccccc1-c1nc(Nc2cc(C)[nH]n2)cc(N(C)CCN(C)C)n1` [Example 186, N^4-(2-(dimethylamino)ethyl)-2-(2-ethylphenyl)-N^4-methyl-N^6-(5-methyl-1H-pyrazol-3-yl)pyrimidine-4,6-diamine], the IC50 is 1 to 10 µM in experiment [5], at most 1 µM in experiment [1] (setting [6]), at most 0.1 µM in experiment [2] and at most 1 µM in experiment [3] (setting [6]).

For `Cc1cc(Nc2cc(NC3CCOCC3)nc(-c3ccccc3Cl)n2)n[nH]1` [Compound 24, 2-(2-chlorophenyl)-N^4-(5-methyl-1H-pyrazol-3-yl)-N^6-(tetrahydro-2H-pyran-4-yl)pyrimidine-4,6-diamine], the IC50 in experiment [1] (setting [6]), in experiment [3] (setting [6]) and in experiment [4] (setting [6]) was at most 1 µM in each case.
